According to patent US20090048179A1, “USE OF 5-PHOSPHODIESTERASE INHIBITORS TO ENHANCE THE PERMEABILITY OF THE BLOOD-BRAIN BARRIER OF ABNORMAL BRAIN TISSUE AND THE BLOOD-TUMOR BARRIER” (CEDARS-SINAI MEDICAL CENTER, priority 2005, published 2009):
Structures can show the parent of a compound that is named as a salt. No end group written: not given here.

Legend:
[1] = tested on: 9L glioma; assay: Survival study, 9L/Fischer rats, treatment on days 7, 8 and 9 post tumor implantation; format: in vivo, rat; details: treatment on days 7, 8 & 9; Levitra 10 mg/kg oral, Adriamycin 2 mg/kg i.v.; control 21.8
Text: Adult, female Fischer rats (180-200 g) were implanted with 9L glioma cells (100,000 cells). […] 15, 2006.
Rats were monitored daily to determine survival times of the tumor-bearing rats for either death or when animals became moribund, euthanasia was employed.

[2] = tested on: 9L gliosarcoma; assay: Survival study, 9L/Luc gliosarcoma-bearing rats, treatment for three days from day 4; format: in vivo, rat; details: vardenafil 10 mg/kg oral, Adriamycin 2 mg/kg i.v., saline 32±2
Text: A p-value of less than 0.05 was considered statistically significant.

[3] = tested on: 9L gliosarcoma (9L/Luc); assay: Tumor size monitoring by bioluminescence imaging and histology; details: day 9 after the last treatment; saline (2.21±1.27)×10^6
[4] = tested on: caveolae endocytosis; assay: In vitro cellular transport of 14C-sucrose with inhibitor of caveolae endocytosis; format: cell-based
Text: To determine whether this is the case for PDE5 inhibitors, the inventor used filipin, an inhibitor of caveolae endocytosis, in the in vitro cellular transport study (FIG. 21; P<0.05 vs. other two treatments). As shown, fillipin abolished the increased transport of ^14C-sucrose by sildenafil. […] As vesicular transport is not specific to brain microvessels per se, the inventor, while not wishing to be bound by any particular theory, believes the mechanism may be responsible for the increased cellular permeability by PDE5 inhibitors in non-CNS cells studied above.

[5] = tested on: blood-tumor barrier (BTB) of 9L gliosarcoma brain tumors; assay: [14C] sucrose transport (Ki) from blood into 9L brain tumors, quantitative autoradiography; format: in vivo, rat
[6] = Animal physiologic parameters (mean arterial blood pressure, blood gases, side effects); format: in vivo, rat; details: for reduction in mean-arterial blood pressure: BK femoral infusion, sildenafil 5-100 mg/kg or vardenafil 1-20 mg/kg oral; for detectable side effects (e.g. hypotension): oral doses used in the rats
Experimental: For Ki study described below, six days after tumor implantation, the rats were anesthetized with ketamine/xylazine. One femoral vein was cannulated for administration of the appropriate drug and the radiotracer; one femoral artery was cannulated to withdraw arterial blood, and another femoral artery was cannulated to monitor systemic blood pressure. Body temperature was maintained at 37° C., and arterial blood gases, blood pressure and hematocrit were monitored.
Mean-arterial blood pressures were decrease approximately 30% secondary to the femoral infusion of BK.

[7] = tested on: mouse brain endothelial cells; assay: In vitro cellular transport of 14C-sucrose, brain endothelial cells; format: cell-based
[8] = tested on: vessel endothelial cells derived from lung tissues (PVEC); assay: In vitro cellular transport of 14C-sucrose, lung vessel endothelial cells; format: cell-based; details: PVECs
[9] = tested on: human brain metastatic lung cancer cell line CRL-5904; assay: In vitro 14C-sucrose transport across tumor cells in transwell, CRL-5904; format: cell-based
Experimental: (§1) In addition to endothelial cells, the inventor tested whether the inhibition of PDE5 has any effect on tracer transport in other tumor cells. In the studies, two tumor cell lines (human brain metastatic lung cancer cell line CRL-5904 and human breast cancer cell line MDA-MB-231) were tested.

[10] = tested on: human breast cancer cell line MDA-MB-231; assay: In vitro 14C-sucrose transport across tumor cells in transwell, MDA-MB-231; format: cell-based
Experimental: as §1

[11] = tested on: cGMP; assay: Plasma cGMP assay in 9L tumor-bearing rats; format: in vivo, rat
Experimental: cGMP levels were determined using a ELISA-based kit (Cayman Chemical Co., Ann Arbor, Mich.) for plasma and immunohistocytochemistry with anti-cGMP antibody (Chemicon Corp.) for tissue sections.
Intracerebral inoculations of 9L tumor cells were performed as described above. […] Different groups of rats were anesthetized 5 minutes before and at 30, 60, 90 and 120 minutes after treatment respectively and the femoral vein was cannulated. Blood was collected and the plasma was separated. The cGMP concentration in the plasma was determined using a commercially available ^125I-labeled cGMP assay kit (Amersham, Arlington Heights, Ill.). cGMP content was expressed as pmol/ml of plasma.

[12] = tested on: cGMP; assay: Brain cGMP immunohistochemistry in 9L tumor-bearing rats; format: in vivo, rat; details: oral vardenafil 10 mg/kg
[13] = femoral infusion of BK or oral sildenafil or vardenafil

With `COc1cccc2c1C(=O)c1c(O)c3c(c(O)c1C2=O)C[C@@](O)(C(=O)CO)C[C@@H]3O[C@H]1C[C@H](N)[C@H](O)[C@H](C)O1` [Adriamycin® (doxorubicin), doxorubicin hydrochloride] the “Mean Survival Days, Mean” value [1] was 30 days, the mean survival time [2] was 42 ± 2 days and the “intracerebral tumor size (IVIS bioluminescence)” value [3] was “(1.03±0.28)×10^6”.

With `CCCCC[C@@H](O)[C@H]1C(=O)O[C@H](C)[C@@H](O)/C=C/C=C/C=C/C=C/C=C(\C)[C@@H](O)C[C@H](O)C[C@H](O)C[C@H](O)C[C@H](O)C[C@H](O)C[C@@H]1O` [fillipin, filipin] the “effect on the increased transport of 14C-sucrose by sildenafil” value [4] was “abolished”.

With `CCCc1nn(C)c2c(=O)[nH]c(-c3cc(S(=O)(=O)N4CCN(C)CC4)ccc3OCC)nc12` [sildenafil] the “dose giving maximal effect on permeability” value ([5]; rat, in vivo) was 50 mg/kg, the “increase in BTB permeability” value ([5]; rat, in vivo) was 1.8 fold and the “time of maximum transport across the BTB into tumor tissues after administration” value ([5]; rat, in vivo) was 60 min. The “reduction in mean-arterial blood pressure” value [6] was 10%, the “arterial blood pH, carbon dioxide, and partial pressure of oxygen” value (from here on “arterial blood pH, carbon dioxide”) [6, 13] was “not changed significantly” and the “detectable side effects (e.g. hypotension)” value (from here on “detectable side effects”) [6] was “did not result in any detectable side effects”. For the same compound, the “detectable side effects” value ([6]; listed as Viagra®) was “did not induce hypotension”, the 14C-sucrose transport [7] was “significantly increased” and the 14C-sucrose transport [8] was “significantly increased”. For the same compound, the “14C-sucrose transport across cells seeded in the transwell” value [9] was “increased” and the “14C-sucrose transport across cells seeded in the transwell” value [10] was “increased”.

For `CCCc1nc(C)c2c(=O)[nH]c(-c3cc(S(=O)(=O)N4CCN(CC)CC4)ccc3OCC)nn12` [vardenafil], the “reduction in mean-arterial blood pressure” value [6] was 10%, the “arterial blood pH, carbon dioxide” value [6, 13] was “not changed significantly” and the “detectable side effects” value [6] was “did not result in any detectable side effects”. The “detectable side effects” value ([6]; listed as Levitra®) was “did not induce hypotension”, the “plasma cGMP level” value ([11]; 30 minutes after oral vardenafil 10 mg/kg, control 0.72±0.48) was 54.96 ± 25.13 pg/mL and the “plasma cGMP level” value ([11]; 60 minutes after oral vardenafil 10 mg/kg) was 79.20 ± 37.36 pg/mL. For the same compound, the “plasma cGMP level” value ([11]; 90 minutes after oral vardenafil 10 mg/kg) was 30.13 ± 17.82 pg/mL, the “time of peak plasma cGMP concentration” value ([11]; oral vardenafil 10 mg/kg) was 60 min and the “time at which tumor cGMP immunostaining returned to the baseline” value [12] was 90 min. The “Mean Survival Days, Mean” value [1] was 22.7 days and the mean survival time [2] was 35 ± 1 days.

With RPPGFSPFR [BK, Bradykinin] the “arterial blood pH, carbon dioxide” value ([6]; rat, in vivo, po) was “not changed significantly”.

In the case of “iberiotoxin (QFTDVDCSVSKECWSVCKDLFGVDRGKCMGKKCRCYQ; UniProt P24663 1-37, looked up)”, the “effect on vardenafil-induced BTB transport increase” value ([5]; iberiotoxin 0.26 μg/kg/min infused 15 min with oral vardenafil 10 mg/kg) is reported as “abolished”.
